The results in this text go back to patent US11596623B2, “Methods for treating virus infection or proliferation” (HOWARD UNIVERSITY, priority 2018, dated 2023).

Holding throughout (type): cell-based
Assay [1] deals with HSV-1. Description: HSV-1 viral protein western blot in HEp-2 cells. Conditions: pre-treated 24 hours at 100 μM; 24 h after infection. The text has this: Panel A of FIG. 3 depicts time and concentration dependent virus protein expression to deduce an optimum drug treatment regimen. […] Tubulin expression was used as the loading control for the blots.
HEp-2 cells (ATCC) were used for the infection of HSV-1. The cells were maintained in Dulbecco's Modified Eagle's medium (DMEM) supplemented with 10% fetal calf serum (FCS) and 1% penicillin-streptomycin (PS). Wild-type HSV-1 17 was obtained from R. D. Everett and used previously
Proteins were separated by SDS-PAGE (25 μg loaded in each lane), transferred to nitrocellulose membranes (Amersham Inc., Piscataway, N.J., USA), and blocked with 5% nonfat milk for 60 min at room temperature. Membranes were incubated overnight at 4° C. with primary antibody, followed by incubation with a horseradish peroxidase-coupled secondary antibody and detection with enhanced chemiluminescence (Pierce, Rockford, Ill., USA), according to standard methods. Membranes were stripped with stripping buffer (100 mM 2-mercaptoethanol, 2% SDS, 62.5 mM Tris-HCl, pH 6.8), washed with PBS-0.1% Tween-20, and used to detect additional proteins. For Arabidopsis lysates one-week old seedlings were treated with 10 uM of ABA in the presence/absence of the inhibitor compounds for 12 hours in a growth chamber (overnight) at 22° C. mostly in the dark. […]
(In general: In western blotting, separated proteins are transferred to a membrane and probed.)

In assay [2] the test system is HSV-1. Description: HSV-1 cytopathic effect in HEp-2 cells under microscope. Particulars: 24 h, different concentrations, versus DMSO. How it is done: The HSV-1 virus and the indicated concentration of compounds were added and incubated for 24 h. After washing way the virus with PBS, image was taken under a compound microscope.
The subject of assay [3] is HSV-1. Description: Immunofluorescence and confocal microscopy of ICP0. Conditions: 10 μM, HSV-1 MOI 1.0, 30 h. How it is done:
The HEp-2 cells were infected with HSV-1 at an MOI of 1.0 for 30 h along with the indicated compounds and control. The no-virus control (A), vehicle DMSO treated (B) and SD29-14 10 μM treated (C) cells were fixed with 4% paraformaldehyde and stained with anti-ICP0-FITC (green) and DAPI for DNA (blue) in the nucleus. The slides were observed under a Nikon confocal microscope (60× magnification lens) and pictures were taken to show infected cells (green) and total cells (DAPI). All scale bars correspond to 20 μm. The imaging experiments were performed three independent times, and the results shown represent one of the three experiments. (D) Quantification of fluorescent cells by Image based cell sorting in a Cellometer (Nexcelom Vision). […] The cells were prepared by immunostaining with ICP0 antibody after 24-h incubation with the indicated compounds. The total cell counts were 1.01×10^6/ml, 4.69×10^6/ml, and 5.36×10^6/ml for DMSO, SD29-14 (10 μM), and SD29-14 (100 μM) respectively. The numbers show the mean±SE of three replicates.
Hep-2 cells were grown to about 80% confluency in 12 well plate and the cells were co-infected with HSV-1 at an MOI of 1.0 for 30 h along with the indicated inhibitor compounds and control. The cells were fixed at room temperature with 4% paraformaldehyde-PBS for 15 minutes and then permeabilized at room temperature by 0.5% Triton X-100-PBS (pH 7.4) for 10 min. […]

In the case of `Nn1c(S)nnc1-c1ccc(F)cc1` [SD-29], the “HSV-1 protein production (ICP0, ICP8, gD)” value in assay [1] is on record as “repressed HSV-1 protein production”.
In the case of `Nn1c(S)nnc1-c1cc(Cl)cc(Cl)c1` [SD29-14], the “cytopathic effect of HSV-1” value in assay [2] is given as “do not show the cytopathic effect”. Also, in assay [3], the “ICP0 protein expression (immunofluorescence)” value is reported as “effectively eliminated any expression of ICP0 protein”.
